Patent US20050209319A1, “Treatment of local pain” (XenoPort, Inc., priority 2004, published 2005)
Read-outs that look alike come from different tables or passages of the source.

Assays:
[1] = Parallel artificial membrane permeability assay (PAMPA); assay type: in vitro ADME; conditions: for Passive permeability in vitro across artificial membranes (in words): PAMPA assays; for Papp at 2 h, 50 µM: PAMPA
Protocol: Artificial membranes were prepared by adding 4 μL of 2% (w/v) dioleoylphosphatidyl-choline in dodecane onto the hydrophobic filters ([…] polyvinylidene fluoride) on the base of the wells of a 96-well donor plate (Millipore, Bedford, Mass.). Gabapentin or a gabapentin prodrug (150 μL of 50 μM solution in 0.1 M Tris buffer, pH 6.5 or pH 7.4) was added to the donor wells in triplicate. The gabapentin prodrug used was 1-{[(α-isobutanoyloxyethoxy)carbonyl]-aminomethyl}-1-cyclohexane acetic acid. The plate was placed onto a 96-well acceptor plate (Agilent, Wilmington, Del.), in which each well contained 400 μL 0.1 M Tris, pH 7.4. Following incubation for two hours at room temperature, samples of the donor and receiver chambers were removed for analysis by LC/MS/MS. The permeability coefficient through the artificial membrane (“Pam”) was calculated using standard methods (Sugano et al., Int. J. Pharm., 2001, 228, pp. 181-188). The artificial membrane permeability coefficient, Pam, of 1-{[(α-isobutanoyloxyethoxy)carbonyl]-aminomethyl}-1-cyclohexane acetic acid was about 5 to 30 times higher than the Pam for gabapentin at the two test pH values as shown in Table 2.

Caco-2 cell monolayers = experiment: Permeability across Caco-2 cell monolayers (cultured human epithelial cell monolayer assay); assay type: in vitro ADME; conditions: for Permeability coefficient (Papp) A to B: apical to basolateral; for Permeability coefficient (Papp) A to B / Permeability coefficient (Papp) B to A: donor 100-200 μM, 1 hr at 37° C, apical pH 6.5, basolateral pH 7.4; for Permeability coefficient (Papp) B to A: basolateral to apical
Description: The following comparative test was run to determine the permeability of gabapentin and a prodrug of gabapentin across a cultured monolayer of human mucosal tissue cells (intestinal epithelial cells). Intestinal epithelial cells have an apical side (i.e., the side normally facing the gut lumen) and a basolateral side (i.e., the side normally facing the patient's internal blood carrying tissues). Both the permeability of the compounds through the monolayer of cells from apical to basolateral (A to B) and basolateral to apical (B to A) were measured.
Caco-2 cells were obtained from the ATCC (Manassas, Va.) and cultured as indicated by the supplier. Caco-2 cells were seeded into 24-well transwell plates with 3 μm filters (Corning/Costar, Acton, Mass.) at a density of 500,000 cells/well and allowed to differentiate in the transwell plates for 21 days. The test compounds were dissolved into either pH 6.5 (apical MES (4-morpholineethane sulfonic acid) buffer) or pH 7.4 (basolateral HBSS (Hanks balanced salt solution) buffer) at concentrations of 100 to 200 μM and added to the appropriate chambers. Samples were removed from the receiving chambers at various times and the permeability was measured by determining the concentration of prodrug and gabapentin (produced by esterase cleavage within the epithelial cells) by LC/MS/MS (liquid chromatography/mass spectroscopy/mass spectroscopy). Apparent permeability coefficients (“Papp”) were calculated by standard methods (B. H. Stewart et al., Pharm. Res., 1995, 12, pp. 693-699). Integrity of the monolayer was confirmed by determining the permeability of 3H-inulin. If greater than 0.5% of the inulin was detected in the receiving chamber, the transwells were discarded.

[2] = injection into hindpaw of rats pretreated with 2% formalin injection; cited from earlier work

Structure (SMILES) | Passive permeability in vitro across artificial membranes (in words) [1] | Permeability coefficient (Pam) pH 6.5 ([1]; donor chamber pH 6.5, 50 μM, two hours at room temperature, acceptor pH 7.4) | Permeability coefficient (Pam) pH 7.4 ([1]; donor chamber pH 7.4, 50 μM, two hours at room temperature, acceptor pH 7.4) | Passive permeability in vitro through Caco-2 cell monolayers (in words) (Caco-2 cell monolayers) | Permeability coefficient (Papp) A to B (Caco-2 cell monolayers) | Permeability coefficient (Papp) B to A (Caco-2 cell monolayers) | Papp compared with the Papp for gabapentin (Caco-2 cell monolayers; from the basolateral to the apical side) | Effect on nociceptive behavior [2] | Papp at 2 h, 50 µM ([1]; donor chamber pH 6.5, 50 μM, two hours at room temperature, acceptor pH 7.4, read-out: Permeability coefficient (Pam) pH 6.5) [nm/s] | Papp at 2 h, 50 µM ([1]; donor chamber pH 7.4, 50 μM, two hours at room temperature, acceptor pH 7.4, read-out: Permeability coefficient (Pam) pH 7.4) [nm/s] | Passive permeability in vitro through Caco-2 cell monolayers (in words) (Caco-2 cell monolayers; Caco-2)
CC(OC(=O)NCC1(CC(=O)O)CCCCC1)OC(=O)C(C)C (stereo not drawn) [1-{[(α-isobutanoyloxyethoxy)carbonyl]-aminomethyl}-1-cyclohexane acetic acid] | relatively high passive permeability | 0.65 (cm/sec) × 10^6 | 0.095 (cm/sec) × 10^6 | relatively high passive permeability | 31 (cm/sec) × 10^6 | 5.7 (cm/sec) × 10^6 | significantly higher | – | – | – | –
NCC1(CC(=O)O)CCCCC1 [Gabapentin] | limited passive permeability | – | – | – | 3.2 (cm/sec) × 10^6 | 3.4 (cm/sec) × 10^6 | – | significantly reduced nociceptive behavior | 0.2 | 0.26 | limited passive permeability
